Experimental data taken from US20230355599A1, “BIOMARKERS FOR CBL, AND COMPOSITIONS AND METHODS FOR THEIR USE” (NURIX THERAPEUTICS, INC., priority 2022, published 2023).

Tests used:
phosphorylated ZAP70 = test: Phosphorylated ZAP70 in circulating CD8+ T cells of patients, Phase 1 trial (flow cytometry); format: in vivo, human
Experimental: [The procedure below names another target; the source lists this target under the same test.] (§1) Pharmacodynamic analysis of the proximal biomarker, phosphorylated HS1 is assessed in circulating CD8^+ T cells from patients that are being administered doses ranging from 5 to 50 mg of Compound 23 once daily and is being used to assess target engagement of Compound 23 as part of the dose/exposure-response profile. Whole blood is collected longitudinally and added into two types of TruCulture (Myriad) tubes. One tube contains media, and the second tube contains anti-CD3 and anti-CD28, which are subsequently crosslinked to induce cellular stimulation for pharmacodynamic analysis. Phosphorylated HS1 is assessed by flow cytometry pre and post dose on Cycle 1 Day 1 (C1D1) and Cycle 2 Day 1 (C2D1) to characterize single/multiple dose PD profiles.
(§2) % Maximal phosphorylated signal and % AUC are two commonly used parameters to assess the pharmacodynamic effects of drugs.
(§3) % Maximal phosphorylated signal refers to the maximum amount of a specific protein that becomes phosphorylated (i.e., modified by the addition of a phosphate group) in response to a drug or other stimulus. This parameter is often used to measure the activation of signaling pathways that are important for various cellular processes, including cell growth and differentiation, immune response, and metabolism.
(§4) % AUC, on the other hand, refers to the area under the curve (AUC) over time, expressed as a percentage of the maximum possible AUC. In summary, both % maximal phosphorylated signal and % AUC are useful parameters to assess the pharmacodynamic effects of drugs. % maximal phosphorylated signal is a measure of the activation of signaling pathways, while % AUC reflects the duration of the effect on PD signals. Both parameters can be used to evaluate the potency and duration of a drug's pharmacodynamic effects.

phosphorylated PLCγ2 [1] = test: Phosphorylated PLCγ2 in cynomolgus macaque CD8+ T cells from whole blood in vitro (flow cytometry); format: cell-based; details: Macaca fascicularis, T-cell, whole blood from six cynomolgus macaques, 2 hrs 37° C., 2 μg/mL anti-CD3 & anti-CD28 + crosslinker 60 minutes, read-out: Average mean EC50±standard deviation, phosphorylated PLCγ2
Experimental: To assess these candidate clinical proximal biomarkers of Cbl-b inhibition on T cells, pharmacodynamic analysis was performed. Whole blood was obtained from cynomolgus macaque donors, then incubated with increasing concentrations of Compound 23. The response to Cbl-b inhibition on phosphorylated HS1, ZAP70 and PLCγ2 was measured in CD8^+ T cells using flow cytometry. This technique is highly quantitative and can measure multiple phosphorylation markers in different cell populations within the same sample.
DMSO (Dimethyl sulfoxide) was used to reconstitute Compound 23. Final concentration of DMSO was 0.05% in media for in vitro assays. […]
Stained cells were run on an Attune NxT Acoustic Focusing Flow Cytometer (Thermo Fisher, cat. No. A29004), and data was analyzed using FlowJo (v10.6.1) and GraphPad Prism (v8.00) software. Single lymphocytes were gated for CD8^+ cells (CD45^+/CD8^+) cells, and population frequencies were calculated for each population. The data is quantified by the percent positive. […] As protein becomes phosphorylated the fluorescence increases resulting in a larger fraction of the cells entering that gate. Each population was evaluated for % positive pY759-PLCγ2, pY397-HS1 levels, pY319/Syk (Y352)-ZAP70 levels.

phosphorylated PLCγ2 [2] = test: Phosphorylated PLCγ2 in circulating CD8+ T cells of patients, Phase 1 trial (flow cytometry); format: in vivo, human
Experimental: [The procedure below names another target; the source lists this target under the same test.] as §1, §2, §3, §4

[3] = 5 mg once daily, n=1, cycle 1, day 1
[4] = 15 mg once daily, n=12, cycle 1, day 1
[5] = 25 mg once daily, n=7, cycle 1, day 1
[6] = 50 mg once daily, n=2, cycle 1, day 1

C[C@H]1CCCN(Cc2cc3c(c(C(F)(F)F)c2)CN(c2cccc([C@]4(c5nncn5C)C[C@@H](C)C4)c2)C3=O)C1 [Compound 23]
% of phosphorylated ZAP70 expressing CD8+ T cells (maximal) (phosphorylated ZAP70; [3]): 47% | phosphorylated ZAP70 AUC (phosphorylated ZAP70; [3]): 734 | % of phosphorylated ZAP70 expressing CD8+ T cells (maximal) (phosphorylated ZAP70; [4]): 83% | phosphorylated ZAP70 AUC (phosphorylated ZAP70; [4]): 1641 | % of phosphorylated ZAP70 expressing CD8+ T cells (maximal) (phosphorylated ZAP70; [5]): 82% | phosphorylated ZAP70 AUC (phosphorylated ZAP70; [5]): 1506 | % of phosphorylated ZAP70 expressing CD8+ T cells (maximal) (phosphorylated ZAP70; [6]): 85% | phosphorylated ZAP70 AUC (phosphorylated ZAP70; [6]): 1870 | trend of maximal % pZAP70 with PK (phosphorylated ZAP70; not statistically significant, p=0.06): Positive trend | EC50 (phosphorylated PLCγ2 [1]): 121 ± 37.4 nM | trend of maximal or AUC % pPLCγ2 with PK (phosphorylated PLCγ2 [2]): No apparent trend | % of phosphorylated PLCγ2 expressing CD8+ T cells (maximal) (phosphorylated PLCγ2 [2]; [3]): 56% | phosphorylated PLCγ2 AUC (phosphorylated PLCγ2 [2]; [3]): 1003 | % of phosphorylated PLCγ2 expressing CD8+ T cells (maximal) (phosphorylated PLCγ2 [2]; [4]): 81% | phosphorylated PLCγ2 AUC (phosphorylated PLCγ2 [2]; [4]): 1616 | % of phosphorylated PLCγ2 expressing CD8+ T cells (maximal) (phosphorylated PLCγ2 [2]; [5]): 85% | phosphorylated PLCγ2 AUC (phosphorylated PLCγ2 [2]; [5]): 1807 | % of phosphorylated PLCγ2 expressing CD8+ T cells (maximal) (phosphorylated PLCγ2 [2]; [6]): 75% | phosphorylated PLCγ2 AUC (phosphorylated PLCγ2 [2]; [6]): 1706
